According to patent US20040063662A1, “Selenophene anti-tumor agents” (priority 1996, published 2004):

What was measured:
K-562 = test: NCI human tumor cell panel: K-562 (Leukemia); assay type: cell-based
MOLT-4 = test: NCI human tumor cell panel: MOLT-4 (Leukemia); assay type: cell-based
SR = test: NCI human tumor cell panel: SR (Leukemia); assay type: cell-based
A549/ATCC = test: NCI human tumor cell panel: A549/ATCC (Non-Small Cell Lung Cancer); assay type: cell-based
EKVX = test: NCI human tumor cell panel: EKVX (Non-Small Cell Lung Cancer); assay type: cell-based
HOP-62 = test: NCI human tumor cell panel: HOP-62 (Non-Small Cell Lung Cancer); assay type: cell-based
NCI-H23 = test: NCI human tumor cell panel: NCI-H23 (Non-Small Cell Lung Cancer); assay type: cell-based
NCI-H460 = test: NCI human tumor cell panel: NCI-H460 (Non-Small Cell Lung Cancer); assay type: cell-based
HCT-116 = test: NCI human tumor cell panel: HCT-116 (Colon Cancer); assay type: cell-based
HCT-15 = test: NCI human tumor cell panel: HCT-15 (Colon Cancer); assay type: cell-based
HT29 = test: NCI human tumor cell panel: HT29 (Colon Cancer); assay type: cell-based
KM12 = test: NCI human tumor cell panel: KM12 (Colon Cancer); assay type: cell-based
SW-620 = test: NCI human tumor cell panel: SW-620 (Colon Cancer); assay type: cell-based
SF-295 = test: NCI human tumor cell panel: SF-295 (CNS Cancer); assay type: cell-based
SNB-75 = test: NCI human tumor cell panel: SNB-75 (CNS Cancer); assay type: cell-based
LOX IMVI = test: NCI human tumor cell panel: LOX IMVI (Melanoma); assay type: cell-based
MALME-3M = test: NCI human tumor cell panel: MALME-3M (Melanoma); assay type: cell-based; conditions: Malme-3M
UACC-257 = test: NCI human tumor cell panel: UACC-257 (Melanoma); assay type: cell-based
UACC-62 = test: NCI human tumor cell panel: UACC-62 (Melanoma); assay type: cell-based
IGROV1 = test: NCI human tumor cell panel: IGROV1 (Ovarian Cancer); assay type: cell-based
OVCAR-4 = test: NCI human tumor cell panel: OVCAR-4 (Ovarian Cancer); assay type: cell-based
OVCAR-5 = test: NCI human tumor cell panel: OVCAR-5 (Ovarian Cancer); assay type: cell-based
OVCAR-8 = test: NCI human tumor cell panel: OVCAR-8 (Ovarian Cancer); assay type: cell-based
786-0 = test: NCI human tumor cell panel: 786-0 (Renal Cancer); assay type: cell-based
A498 = test: NCI human tumor cell panel: A498 (Renal Cancer); assay type: cell-based
ACHN = test: NCI human tumor cell panel: ACHN (Renal Cancer); assay type: cell-based
SN12C = test: NCI human tumor cell panel: SN12C (Renal Cancer); assay type: cell-based
TK-10 = test: NCI human tumor cell panel: TK-10 (Renal Cancer); assay type: cell-based; conditions: TK-10, read-out: Log10 GI50 (converted)
PC-3 = test: NCI human tumor cell panel: PC-3 (Prostate Cancer); assay type: cell-based
MCF7/ADR-RES = test: NCI human tumor cell panel: MCF7/ADR-RES (Breast Cancer); assay type: cell-based
HS 578T = test: NCI human tumor cell panel: HS 578T (Breast Cancer); assay type: cell-based
BT-549 = test: NCI human tumor cell panel: BT-549 (Breast Cancer); assay type: cell-based
HOP-92 = test: NCI human tumor cell panel: HOP-92 (Non-Small Cell Lung Cancer)
[1] = read-out: Log10 GI50 (converted)
[2] = read-out: Log10 TGI (converted)

How did the GI50 (K-562; K562, K-562, read-out: Log10 GI50 (converted)) turn out when `OCc1ccc(-c2ccc(-c3ccc(CO)[se]3)[se]2)[se]1` [compound 675247] was run?
Its GI50 is 1.32 µM.

And the IC (TGI) (K-562; K562, K-562, read-out: Log10 TGI (converted))?
Its IC (TGI) is 5.01 µM.

What about the GI50 (MOLT-4; MOLT-4, read-out: Log10 GI50 (converted)) of the same compound?
Its GI50 is 3.31 µM.

What about the IC (TGI) (MOLT-4; MOLT-4, read-out: Log10 TGI (converted)) of the same compound?
The IC (TGI) was 8.32 µM.

What about the GI50 (SR; [1]) of the same compound?
Its GI50 is 3.72 µM.

What about the IC (TGI) (SR; [2]) of the same compound?
The IC (TGI) was > 100 µM.

What about the GI50 (A549/ATCC; [1]) of the same compound?
Its GI50 is 4.57 µM.

What about the IC (TGI) (A549/ATCC; [2]) of the same compound?
The IC (TGI) was 19.5 µM.

And the GI50 (EKVX; [1])?
The GI50 was 5.01 µM.

What about the IC (TGI) (EKVX; [2]) of the same compound?
Its IC (TGI) is 34.7 µM.

And the GI50 (HOP-62; HOP-62, read-out: Log10 GI50 (converted))?
Its GI50 is 5.5 µM.

What about the IC (TGI) (HOP-62; HOP-62, read-out: Log10 TGI (converted)) of the same compound?
The IC (TGI) was 21.4 µM.

What about the GI50 (NCI-H23; NCI-H23, read-out: Log10 GI50 (converted)) of the same compound?
Its GI50 is 6.61 µM.

What about the IC (TGI) (NCI-H23; NCI-H23, read-out: Log10 TGI (converted)) of the same compound?
The IC (TGI) was 25.1 µM.

What about the GI50 (NCI-H460; NCI-H460, read-out: Log10 GI50 (converted)) of the same compound?
The GI50 was 0.525 µM.

What about the IC (TGI) (NCI-H460; NCI-H460, read-out: Log10 TGI (converted)) of the same compound?
The IC (TGI) was 10 µM.

What about the GI50 (HCT-116; HCT-116, read-out: Log10 GI50 (converted)) of the same compound?
Its GI50 is 0.537 µM.

And the IC (TGI) (HCT-116; HCT-116, read-out: Log10 TGI (converted))?
Its IC (TGI) is 11.2 µM.

What about the GI50 (HCT-15; HCT-15, read-out: Log10 GI50 (converted)) of the same compound?
Its GI50 is 3.8 µM.

What about the IC (TGI) (HCT-15; HCT-15, read-out: Log10 TGI (converted)) of the same compound?
Its IC (TGI) is 12.3 µM.

What about the GI50 (HT29; HT-29, HT29, read-out: Log10 GI50 (converted)) of the same compound?
The GI50 was 1.62 µM.

What about the IC (TGI) (HT29; HT-29, HT29, read-out: Log10 TGI (converted)) of the same compound?
The IC (TGI) was 7.59 µM.

What about the GI50 (KM12; KM12, read-out: Log10 GI50 (converted)) of the same compound?
Its GI50 is 4.47 µM.

And the IC (TGI) (KM12; KM12, read-out: Log10 TGI (converted))?
Its IC (TGI) is 15.1 µM.

What about the GI50 (SW-620; SW-620, read-out: Log10 GI50 (converted)) of the same compound?
Its GI50 is 1.35 µM.

And the IC (TGI) (SW-620; SW-620, read-out: Log10 TGI (converted))?
Its IC (TGI) is 3.63 µM.

And the GI50 (SF-295; SF-295, read-out: Log10 GI50 (converted))?
The GI50 was 11.7 µM.

And the IC (TGI) (SF-295; SF-295, read-out: Log10 TGI (converted))?
The IC (TGI) was 28.8 µM.

What about the GI50 (SNB-75; SNB-75, read-out: Log10 GI50 (converted)) of the same compound?
Its GI50 is 14.8 µM.

What about the IC (TGI) (SNB-75; SNB-75, read-out: Log10 TGI (converted)) of the same compound?
Its IC (TGI) is 38.9 µM.

What about the GI50 (LOX IMVI; [1]) of the same compound?
The GI50 was 3.02 µM.

What about the IC (TGI) (LOX IMVI; [2]) of the same compound?
The IC (TGI) was 7.08 µM.

What about the GI50 (MALME-3M; [1]) of the same compound?
The GI50 was 2.88 µM.

And the IC (TGI) (MALME-3M; [2])?
The IC (TGI) was 10.7 µM.

What about the GI50 (UACC-257; UACC-257, read-out: Log10 GI50 (converted)) of the same compound?
Its GI50 is 0.437 µM.

What about the IC (TGI) (UACC-257; UACC-257, read-out: Log10 TGI (converted)) of the same compound?
Its IC (TGI) is 2 µM.

And the GI50 (UACC-62; UACC-62, read-out: Log10 GI50 (converted))?
Its GI50 is 0.155 µM.

What about the IC (TGI) (UACC-62; UACC-62, read-out: Log10 TGI (converted)) of the same compound?
The IC (TGI) was 2.45 µM.

And the GI50 (IGROV1; IGROV-1, IGROV1, read-out: Log10 GI50 (converted))?
The GI50 was 1.38 µM.

What about the IC (TGI) (IGROV1; IGROV-1, IGROV1, read-out: Log10 TGI (converted)) of the same compound?
Its IC (TGI) is 6.46 µM.

And the GI50 (OVCAR-4; OVCAR-4, read-out: Log10 GI50 (converted))?
Its GI50 is 1.7 µM.

What about the IC (TGI) (OVCAR-4; OVCAR-4, read-out: Log10 TGI (converted)) of the same compound?
Its IC (TGI) is 6.92 µM.

And the GI50 (OVCAR-5; OVCAR-5, read-out: Log10 GI50 (converted))?
Its GI50 is 1.32 µM.

What about the IC (TGI) (OVCAR-5; OVCAR-5, read-out: Log10 TGI (converted)) of the same compound?
Its IC (TGI) is 12.9 µM.

And the GI50 (OVCAR-8; OVCAR-8, read-out: Log10 GI50 (converted))?
Its GI50 is 3.72 µM.

What about the IC (TGI) (OVCAR-8; OVCAR-8, read-out: Log10 TGI (converted)) of the same compound?
Its IC (TGI) is 17.8 µM.

What about the GI50 (786-0; 786-0, read-out: Log10 GI50 (converted)) of the same compound?
The GI50 was 2.75 µM.

What about the IC (TGI) (786-0; 786-0, read-out: Log10 TGI (converted)) of the same compound?
Its IC (TGI) is 6.31 µM.

And the GI50 (A498; A498, read-out: Log10 GI50 (converted))?
Its GI50 is 0.38 µM.

What about the IC (TGI) (A498; A498, read-out: Log10 TGI (converted)) of the same compound?
The IC (TGI) was 1.41 µM.

And the GI50 (ACHN; [1])?
Its GI50 is 3.98 µM.

What about the IC (TGI) (ACHN; [2]) of the same compound?
Its IC (TGI) is > 100 µM.

And the GI50 (SN12C; [1])?
The GI50 was 2.75 µM.

What about the IC (TGI) (SN12C; [2]) of the same compound?
Its IC (TGI) is 11.7 µM.

What about the GI50 (TK-10) of the same compound?
The GI50 was 0.138 µM.

What about the GI50 (PC-3; PC-3, read-out: Log10 GI50 (converted)) of the same compound?
Its GI50 is 3.55 µM.

And the IC (TGI) (PC-3; PC-3, read-out: Log10 TGI (converted))?
The IC (TGI) was 12.3 µM.

And the GI50 (MCF7/ADR-RES; [1])?
The GI50 was 3.8 µM.

What about the IC (TGI) (MCF7/ADR-RES; [2]) of the same compound?
The IC (TGI) was 26.3 µM.

And the GI50 (HS 578T; [1])?
The GI50 was 3.24 µM.

And the IC (TGI) (HS 578T; [2])?
Its IC (TGI) is 11.2 µM.

What about the GI50 (BT-549; BT-549, read-out: Log10 GI50 (converted)) of the same compound?
The GI50 was 3.39 µM.

And the IC (TGI) (BT-549; BT-549, read-out: Log10 TGI (converted))?
The IC (TGI) was 14.1 µM.

What about the GI50 (HOP-92; HOP-92, read-out: Log10 GI50 (converted)) of the same compound?
Its GI50 is 2.4 µM.

What about the IC (TGI) (HOP-92; HOP-92, read-out: Log10 TGI) of the same compound?
The IC (TGI) was 7.59 µM.
